In one assay the target is T1, M1 receptors (Rattus norvegicus, UniProt P08482).
T1 construct: from tissue; host or cells: rat cortical membranes
T1 sequence (P08482 1-460): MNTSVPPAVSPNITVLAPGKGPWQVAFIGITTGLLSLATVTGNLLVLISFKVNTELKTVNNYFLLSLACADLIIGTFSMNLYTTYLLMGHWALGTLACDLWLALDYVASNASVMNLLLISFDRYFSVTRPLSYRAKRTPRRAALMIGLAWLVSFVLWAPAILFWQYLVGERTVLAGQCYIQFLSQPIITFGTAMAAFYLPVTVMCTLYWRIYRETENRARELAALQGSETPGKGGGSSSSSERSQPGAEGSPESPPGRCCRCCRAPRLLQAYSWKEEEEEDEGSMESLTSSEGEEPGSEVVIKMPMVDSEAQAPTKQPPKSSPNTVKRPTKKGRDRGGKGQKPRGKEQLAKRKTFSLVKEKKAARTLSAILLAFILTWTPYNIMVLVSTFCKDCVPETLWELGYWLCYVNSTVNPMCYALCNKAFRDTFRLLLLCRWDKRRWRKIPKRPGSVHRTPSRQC
As to the kind of experiment: [3H]PZ competition binding to rat cortical membranes. The note with it: rat cortex. The source says: Pirenzepine (PZ), a muscarinic antagonist, binds preferentially to M1 receptors while OXO-M binds to all mAChR subtypes non-selectively; the ratio between the Ki values for PZ versus that of OXO-M may be indicative of the selectivity of the tested compound. The smaller the ratio, the more M1 selective is the tested compound. […] The OXO-M/PZ ratio is ˜0.36 showing a moderately high selectivity for the M1 receptor.

The target in the next assay is muscarinic receptor. As to the kind of experiment: [3H]OXO-M competition binding. The note with it: rat cortex.
For assay [1], the system named is rat primary cerebral cortex cell cultures. In words: APPs secretion in rat primary cortical cell cultures. Type of assay: cell-based. The note with it: 100 μm.
In assay [2] the test system is rat primary hippocampal cell cultures. In words: APPs secretion in rat primary hippocampal cell cultures. Format: cell-based. The following applies: 100 μm.
Another assay addresses T2, M2 mAChR (Homo sapiens, UniProt P08172).
T2 construct: expressed in transfected cells; host or cells: 'modified cell cultures' giving a Ca increase; modification not described
As to the kind of experiment: Intracellular Ca increase in modified cell cultures, M2. Format: cell-based.

The next assay deals with rabbits with nbm lesions. In words: CSF and cortical Aβ in hypocholinergic (nbm-lesioned) rabbits. The note with it: 4 weeks. Type of assay: in vivo, New Zealand White rabbits. The source says: It is known that experimentally-induced cortical cholinergic denervation results in biochemical elevations of cortical Aβ concentrations and in histologic Aβ deposition (Beach et al, Neurosci Lett 283: 9–12, 2000), and that administration of muscarinic Ml-selective agents to normal animals decreases CSF AP concentrations {Beach et al Brain Res. 905: 220–223, 2001}.
Twenty-eight female New Zealand White rabbits, about 2.5 kg each (young adults) were used. Twenty-one received lesions of the cholinergic nucleus basalis magnocellularis (nbm). The lesion was accomplished with unilateral i.c.v. injections of an immunotoxin consisting of the ribosomal toxin saporin conjugated to the monoclonal antibody ME20.4, which is directed against the low-affinity neurotrophin receptor, p75. The ME20.4 antibody is made against monkey p75 and also recognizes rabbit p75. The dose of immunotoxin was 32.4 μg in 12 μl; this was delivered to the right lateral ventricle 2 mm lateral to the bregma. Seven animals received i.c.v. injections of sterile normal saline (sham lesion). Animals which received the immunotoxin were divided into 3 groups of 7. […] Another group received physostigmine hemisalicylate in normal saline by s.c. osmotic pump at a daily dose of 3 mg/kg. The third group received twice-daily sterile saline s.c. injections. The animals which received a sham lesion were implanted with s.c. osmotic pumps filled with sterile normal saline. Animals were euthanized 4 weeks after surgery. […] Cerebrospinal fluid was taken from the cisterna magna of all animals at the time of sacrifice; the brain was removed and sliced coronally into 0.5 cm slices. […] The other slices were frozen on sheets of dry ice (the other slices are the non-fixed 0.5 cm coronal slices of cerebrum, brainstem and cerebellum).

The text below walks through data of patent US7049321B2, “Methods and pharmaceutical compositions for treatment of central and peripheral nervous system disorders and compounds useful therefor” (Israel Institute for Biological Research, priority 2002, dated 2006).

T2 sequence (P08172 whole entry): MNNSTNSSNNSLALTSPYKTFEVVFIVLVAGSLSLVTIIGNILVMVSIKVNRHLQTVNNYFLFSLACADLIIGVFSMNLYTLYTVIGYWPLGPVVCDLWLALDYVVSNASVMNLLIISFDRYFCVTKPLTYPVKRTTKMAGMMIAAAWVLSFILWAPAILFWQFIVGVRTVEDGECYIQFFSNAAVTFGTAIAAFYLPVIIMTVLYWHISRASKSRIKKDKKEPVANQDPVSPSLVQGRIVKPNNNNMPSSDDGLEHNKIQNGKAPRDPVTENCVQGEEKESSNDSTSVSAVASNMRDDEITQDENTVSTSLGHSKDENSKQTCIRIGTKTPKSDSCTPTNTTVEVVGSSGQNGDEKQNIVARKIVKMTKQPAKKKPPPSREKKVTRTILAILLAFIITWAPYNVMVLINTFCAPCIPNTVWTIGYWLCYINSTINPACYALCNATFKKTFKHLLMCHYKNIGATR

As a reminder, the Ki is a dissociation constant, usually derived from enzyme kinetics or from competition with a known ligand. A lower Ki goes with tighter binding. Take `CC[C@H]1SC2(CCNCC2)NC1=O` [AF291, (R)-2-Ethyl-1-thia-4,8-diaza-spiro[4.5]decan-3-one]: the Ki at M1 receptors stood at 10.7 µM; at muscarinic receptor it was 6.56 µM.
Turning to `O=C1CCCN1CC#CCN1CCCC1` [Oxotremorine, oxotremorine, reference compound], the “APPs secretion, activity in words” value in assay [1] and in assay [2] was “inactive” each time.
With `C[N+](C)(C)CCOC(N)=O` [carbachol, reference compound], at M2 mAChR, the “Increase in activity on the M2 mAChR” value was 8 fold.
As for `CNC(=O)Oc1ccc2c(c1)[C@]1(C)CCN(C)[C@@H]1N2C` [physostigmine, reference compound], the “APPs secretion, activity in words” value in assay [1] and in assay [2] was “inactive” throughout. For the same molecule, in the assay with rabbits with nbm lesions, the “Histologic Aβ deposition, % of the lesioned, untreated group” value was found to be 6.4%.
